Columns and labels:
[1] = tested on: human cervical tumor cell line HeLa (ATCC CCL-2); experiment: SAC-Formation - Paclitaxel-Induced Assay; type: cell-based; details: Homo sapiens, HeLa, 24 h, HeLa cells, paclitaxel 0.05 μM, test range 0.005 μM-20 μM, read-out: IC50 [mol/l] SAC-Formation - Paclitaxel-Induced Assay
Method in brief: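 HeLa cells incubated overnight at 37° C, then given paclitaxel (0.05 μM final) plus test compound (0.005–20 μM, 0.5% DMSO) together for 24 h at 37° C. Fixed cells stained for phospho-histone H3 Ser10 (mitotic cells) and Hoechst 33342 (cell count); imaging-derived mitotic index fitted by four-parameter Hill equation.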

HeLa = experiment: Proliferation assay (crystal violet), HeLa; type: cell-based; details: Homo sapiens, HeLa, 96 h, HeLa cells; 4 days incubation; crystal violet staining; read-out: IC50 inhibition of proliferation, HeLa
Method in brief: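 Seed 1000–5000 cells/well, 10% FCS; 24 h later replace medium and add compound (0.001–10 μM, 0.5% DMSO); incubate 4 d; glutaraldehyde fix, 0.1% crystal violet pH 3.0, elute with 10% acetic acid; A595; 4-parameter IC50.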

Row | Structure (SMILES) | IC50 [1] [µM] | IC50 (HeLa) [µM]
1 | Cc1nsc(Nc2cnc(C(F)(F)F)cn2)c1C(=O)Nc1ccc(F)c(OC2CCN(CC(F)(F)F)C2)c1 (stereo not shown) [Example 315, N-(4-fluoro-3-{[1-(2,2,2-trifluoroethyl)pyrrolidin-3-yl]oxy}phenyl)-3-methyl-5-{[5-(trifluoromethyl)pyrazin-2-yl]amino}-1,2-thiazole-4-carboxamide] | 0.06 | 0.78
2 | Cc1nsc(Nc2cnc(C(F)(F)F)cn2)c1C(=O)Nc1ccc(N(C)C)c(OCCCN(C)CC(F)(F)F)c1 [Example 299, N-[4-(dimethylamino)-3-{3-[methyl(2,2,2-trifluoroethyl)amino]propoxy}phenyl]-3-methyl-5-{[5-(trifluoromethyl)pyrazin-2-yl]amino}-1,2-thiazole-4-carboxamide] | 0.19 | 0.26
3 | Cc1nsc(Nc2cnc(C(F)(F)F)cn2)c1C(=O)Nc1ccc(OCCNCCF)nc1 [Example 321, N-(6-{2-[(2-fluoroethyl)amino]ethoxy}pyridin-3-yl)-3-methyl-5-{[5-(trifluoromethyl)pyrazin-2-yl]amino}-1,2-thiazole-4-carboxamide] | 1.1 | 3.4
4 | Cc1nsc(Nc2cnc(C(F)(F)F)cn2)c1C(=O)Nc1ccc(F)c(OCCCN(C)CC(F)(F)F)c1 [Example 302, N-(4-fluoro-3-{3-[methyl(2,2,2-trifluoroethyl)amino]propoxy}phenyl)-3-methyl-5-{[5-(trifluoromethyl)pyrazin-2-yl]amino}-1,2-thiazole-4-carboxamide] | 0.43 | 0.34
5 | Cc1nsc(Nc2cnc(C(F)(F)F)cn2)c1C(=O)Nc1ccc(F)c(OCC2CCN(CC(F)F)C2)c1 (stereo not shown) [Example 316, N-(3-{[1-(2,2-difluoroethyl)pyrrolidin-3-yl]methoxy}-4-fluorophenyl)-3-methyl-5-{[5-(trifluoromethyl)pyrazin-2-yl]amino}-1,2-thiazole-4-carboxamide] | 0.045 | 0.43
6 | Cc1nsc(Nc2cncc(C(F)(F)F)n2)c1C(=O)Nc1ccc(C(=O)NC2CN(CC(F)(F)F)C2)cc1 [Example 280, 3-methyl-N-(4-{[1-(2,2,2-trifluoroethyl)azetidin-3-yl]carbamoyl}phenyl)-5-{[6-(trifluoromethyl)pyrazin-2-yl]amino}-1,2-thiazole-4-carboxamide] | 3.7 | > 10
7 | Cc1nsc(Nc2cncc(C(F)(F)F)n2)c1C(=O)Nc1ccc(F)c(OC2CCN(CCF)CC2)c1 [Example 269, N-(4-fluoro-3-{[1-(2-fluoroethyl)piperidin-4-yl]oxy}phenyl)-3-methyl-5-{[6-(trifluoromethyl)pyrazin-2-yl]amino}-1,2-thiazole-4-carboxamide] | 0.21 | 0.84
8 | Cc1nsc(Nc2cncc(C(F)(F)F)n2)c1C(=O)Nc1ccc(F)c(OC2CCN(CC(F)F)CC2)c1 [Example 268, N-(3-{[1-(2,2-difluoroethyl)piperidin-4-yl]oxy}-4-fluorophenyl)-3-methyl-5-{[6-(trifluoromethyl)pyrazin-2-yl]amino}-1,2-thiazole-4-carboxamide] | 0.11 | 0.31
9 | Cc1nsc(Nc2cc(C#N)ccn2)c1C(=O)Nc1ccc(OC2CCNCC2)nc1 [Example 24, 5-[(4-Cyanopyridin-2-yl)amino]-3-methyl-N-[6-(piperidin-4-yloxy)pyridin-3-yl]-1,2-thiazole-4-carboxamide] | 20 | 10

The next lines start with the values.

Row | IC50 [1] [µM] | IC50 (HeLa) [µM] | Structure (SMILES)
10 | 2 | 7 | Cc1nsc(Nc2cnc3ccccc3n2)c1C(=O)Nc1cccc(NS(=O)(=O)C2CCN(C(=O)OC(C)(C)C)CC2)c1 [Example 258, tert-butyl 4-{[3-({[3-methyl-5-(quinoxalin-2-ylamino)-1,2-thiazol-4-yl]carbonyl}amino)phenyl]sulfamoyl} piperidine-1-carboxylate]
11 | 4.8 | 8.9 | Cc1nsc(Nc2cnc3ccccc3n2)c1C(=O)Nc1cccc(NS(=O)(=O)C2CCCN(C(=O)OCc3ccccc3)C2)c1 (stereo not shown) [Example 291, benzyl 3-{[3-({[3-methyl-5-(quinoxalin-2-ylamino)-1,2-thiazol-4-yl]carbonyl}amino)phenyl]sulfamoyl} piperidine-1-carboxylate]
12 | 0.12 | > 10 | CCNC(=O)c1cccc(NC(=O)c2c(C)nsc2Nc2ccc(C#N)cn2)c1 [Example 252, 5-[(5-cyanopyridin-2-yl)amino]-N-[3-(ethylcarbamoyl)phenyl]-3-methyl-1,2-thiazole-4-carboxamide]
13 | 4.7 | > 10 | Cc1nsc(Nc2ccc(C#N)cn2)c1C(=O)Nc1cccc(C(=O)NC2CC2)c1 [Example 250, 5-[(5-cyanopyridin-2-yl)amino]-N-[3-(cyclopropylcarbamoyl)phenyl]-3-methyl-1,2-thiazole-4-carboxamide]
14 | 6.5 | 10 | Cc1nsc(Nc2cnc3ccccc3n2)c1C(=O)Nc1cccc(NS(=O)(=O)C2CN(CC(F)F)C2)c1 [Example 286, N-[3-({[1-(2,2-difluoroethyl)azetidin-3-yl]sulfonyl}amino)phenyl]-3-methyl-5-(quinoxalin-2-ylamino)-1,2-thiazole-4-carboxamide]
